Experiments:
[1] = target: Dual specificity protein kinase TTK (Homo sapiens) (UniProt P33981); settings: Compound concentration 1000.0 nM
[2] = target: RAC-gamma serine/threonine-protein kinase (Homo sapiens) (UniProt Q9Y243); settings: Compound concentration 1000.0 nM
[3] = target: Serine/threonine-protein kinase/endoribonuclease IRE1 (Homo sapiens) (UniProt O75460); settings: Compound concentration 1000.0 nM
[4] = target: Serine/threonine-protein kinase RIO2 (Homo sapiens) (UniProt Q9BVS4); settings: Compound concentration 1000.0 nM
[5] = target: Tyrosine-protein kinase CSK (Homo sapiens) (UniProt P41240); settings: Compound concentration 1000.0 nM
Chain of Tyrosine-protein kinase CSK (Homo sapiens) (P41240 2-450 limits assumed): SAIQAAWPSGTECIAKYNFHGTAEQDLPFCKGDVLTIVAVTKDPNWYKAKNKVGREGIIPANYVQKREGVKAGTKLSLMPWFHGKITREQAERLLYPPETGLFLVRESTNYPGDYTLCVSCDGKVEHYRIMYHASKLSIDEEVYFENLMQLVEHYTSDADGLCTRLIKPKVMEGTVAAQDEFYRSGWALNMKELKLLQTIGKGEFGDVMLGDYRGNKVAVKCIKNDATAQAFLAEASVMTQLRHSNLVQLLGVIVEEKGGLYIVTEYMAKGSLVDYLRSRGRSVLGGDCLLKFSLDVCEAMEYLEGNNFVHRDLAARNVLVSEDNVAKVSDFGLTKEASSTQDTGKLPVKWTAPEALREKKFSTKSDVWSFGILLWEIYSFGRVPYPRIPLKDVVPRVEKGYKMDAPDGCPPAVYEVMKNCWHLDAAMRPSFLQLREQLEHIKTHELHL

[6] = target: SRSF protein kinase 2 (Homo sapiens) (UniProt P78362); settings: Compound concentration 1000.0 nM
[7] = target: Non-receptor tyrosine-protein kinase TYK2 (Homo sapiens) (UniProt P29597); settings: Compound concentration 1000.0 nM
[8] = target: Serine/threonine-protein kinase Sgk3 (Homo sapiens) (UniProt Q96BR1); settings: Compound concentration 1000.0 nM
[9] = target: Ephrin type-A receptor 3 (Homo sapiens) (UniProt P29320); settings: Compound concentration 1000.0 nM
[10] = target: Atypical kinase COQ8A, mitochondrial (Homo sapiens) (UniProt Q8NI60); settings: Compound concentration 1000.0 nM
[11] = test system: Proto-oncogene tyrosine-protein kinase receptor Ret (Homo sapiens), P07949 [V804L]; settings: Compound concentration 1000.0 nM
[12] = target: Myosin light chain kinase 2, skeletal/cardiac muscle (Homo sapiens) (UniProt Q9H1R3); settings: Compound concentration 1000.0 nM
[13] = target: cGMP-dependent protein kinase 2 (Homo sapiens) (UniProt Q13237); settings: Compound concentration 1000.0 nM
[14] = test system: Mast/stem cell growth factor receptor Kit (Homo sapiens), P10721 [A829P]; settings: Compound concentration 1000.0 nM
[15] = target: Proto-oncogene tyrosine-protein kinase ROS (Homo sapiens) (UniProt P08922); settings: Compound concentration 1000.0 nM
[16] = target: Leukocyte tyrosine kinase receptor (Homo sapiens) (UniProt P29376); settings: Compound concentration 1000.0 nM
Chain of Leukocyte tyrosine kinase receptor (Homo sapiens) (P29376 whole entry): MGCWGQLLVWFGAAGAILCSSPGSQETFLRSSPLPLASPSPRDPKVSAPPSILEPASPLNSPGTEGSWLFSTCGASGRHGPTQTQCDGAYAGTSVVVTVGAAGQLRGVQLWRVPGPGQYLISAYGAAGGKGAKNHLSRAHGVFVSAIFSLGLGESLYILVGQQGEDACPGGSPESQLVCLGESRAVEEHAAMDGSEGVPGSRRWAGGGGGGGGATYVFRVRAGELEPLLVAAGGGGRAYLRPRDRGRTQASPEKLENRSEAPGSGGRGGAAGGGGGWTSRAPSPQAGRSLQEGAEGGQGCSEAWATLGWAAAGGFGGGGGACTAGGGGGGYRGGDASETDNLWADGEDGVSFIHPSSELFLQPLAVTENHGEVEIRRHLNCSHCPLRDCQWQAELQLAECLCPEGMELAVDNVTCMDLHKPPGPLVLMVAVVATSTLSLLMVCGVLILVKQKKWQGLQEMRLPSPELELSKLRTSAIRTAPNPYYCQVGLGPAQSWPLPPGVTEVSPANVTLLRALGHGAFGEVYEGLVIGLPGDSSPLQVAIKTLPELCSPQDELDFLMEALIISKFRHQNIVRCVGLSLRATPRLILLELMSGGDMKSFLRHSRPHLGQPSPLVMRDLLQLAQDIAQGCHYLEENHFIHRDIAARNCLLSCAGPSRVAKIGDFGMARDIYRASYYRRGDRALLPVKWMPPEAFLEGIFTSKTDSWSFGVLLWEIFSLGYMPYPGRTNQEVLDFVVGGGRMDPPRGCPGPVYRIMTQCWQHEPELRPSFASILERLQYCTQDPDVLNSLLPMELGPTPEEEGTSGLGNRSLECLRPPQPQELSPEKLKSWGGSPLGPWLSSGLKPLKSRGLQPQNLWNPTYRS

[17] = target: Serine/threonine-protein kinase RIO3 (Homo sapiens) (UniProt O14730); settings: Compound concentration 1000.0 nM
[18] = target: 3-phosphoinositide-dependent protein kinase 1 (Homo sapiens) (UniProt O15530); settings: Compound concentration 1000.0 nM
Chain of 3-phosphoinositide-dependent protein kinase 1 (Homo sapiens) (O15530 whole entry): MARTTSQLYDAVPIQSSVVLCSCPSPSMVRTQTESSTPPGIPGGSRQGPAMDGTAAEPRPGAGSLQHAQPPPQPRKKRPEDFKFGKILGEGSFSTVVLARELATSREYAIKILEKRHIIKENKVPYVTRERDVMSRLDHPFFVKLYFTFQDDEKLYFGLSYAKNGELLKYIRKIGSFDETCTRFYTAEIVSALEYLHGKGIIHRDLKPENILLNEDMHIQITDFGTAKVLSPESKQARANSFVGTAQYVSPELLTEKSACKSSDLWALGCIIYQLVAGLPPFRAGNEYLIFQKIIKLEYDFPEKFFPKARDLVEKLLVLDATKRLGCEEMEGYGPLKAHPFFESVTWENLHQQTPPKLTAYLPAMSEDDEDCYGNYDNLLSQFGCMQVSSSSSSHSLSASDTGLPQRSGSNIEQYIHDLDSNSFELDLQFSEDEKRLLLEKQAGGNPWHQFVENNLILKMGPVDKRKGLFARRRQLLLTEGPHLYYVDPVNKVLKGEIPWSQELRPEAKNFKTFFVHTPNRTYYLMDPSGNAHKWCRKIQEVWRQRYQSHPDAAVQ

[19] = target: Serine/threonine-protein kinase PAK 3 (Homo sapiens) (UniProt O75914); settings: Compound concentration 1000.0 nM
Chain of Serine/threonine-protein kinase PAK 3 (Homo sapiens) (O75914 whole entry, looked up): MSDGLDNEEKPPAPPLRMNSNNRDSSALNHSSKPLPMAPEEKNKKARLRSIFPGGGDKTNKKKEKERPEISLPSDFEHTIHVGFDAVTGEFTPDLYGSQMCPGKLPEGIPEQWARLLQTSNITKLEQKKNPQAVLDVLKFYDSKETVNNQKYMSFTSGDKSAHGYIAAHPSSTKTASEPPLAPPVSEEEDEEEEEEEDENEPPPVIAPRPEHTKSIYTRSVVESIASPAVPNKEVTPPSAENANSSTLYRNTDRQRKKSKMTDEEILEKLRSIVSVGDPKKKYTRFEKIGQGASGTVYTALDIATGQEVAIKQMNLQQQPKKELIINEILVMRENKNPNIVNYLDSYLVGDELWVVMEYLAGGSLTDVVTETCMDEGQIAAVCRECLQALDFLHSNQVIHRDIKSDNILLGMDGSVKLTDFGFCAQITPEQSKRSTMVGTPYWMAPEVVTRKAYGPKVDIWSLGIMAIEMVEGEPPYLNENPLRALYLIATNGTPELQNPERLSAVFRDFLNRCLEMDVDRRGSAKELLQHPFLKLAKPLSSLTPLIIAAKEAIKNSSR

[20] = target: Transient receptor potential cation channel subfamily M member 6 (Homo sapiens) (UniProt Q9BX84); settings: Compound concentration 1000.0 nM
[21] = target: Cyclin-dependent kinase 19 (Homo sapiens) (UniProt Q9BWU1); settings: Compound concentration 1000.0 nM
[22] = target: Serine/threonine-protein kinase MRCK gamma (Homo sapiens) (UniProt Q6DT37); settings: Compound concentration 1000.0 nM
[23] = target: Serine/threonine-protein kinase pim-1 (Homo sapiens) (UniProt P11309); settings: Compound concentration 1000.0 nM
Chain of Serine/threonine-protein kinase pim-1 (Homo sapiens) (P11309 whole entry, looked up): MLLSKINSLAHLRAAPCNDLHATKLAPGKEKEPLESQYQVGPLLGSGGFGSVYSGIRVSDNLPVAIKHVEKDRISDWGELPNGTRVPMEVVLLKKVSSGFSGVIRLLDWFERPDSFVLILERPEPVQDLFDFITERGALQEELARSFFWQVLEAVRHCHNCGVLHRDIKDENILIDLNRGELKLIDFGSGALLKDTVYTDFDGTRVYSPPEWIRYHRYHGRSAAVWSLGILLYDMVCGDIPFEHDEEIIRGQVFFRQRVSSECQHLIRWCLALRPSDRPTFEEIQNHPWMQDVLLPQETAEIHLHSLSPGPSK

[24] = target: Serine/threonine-protein kinase Nek6 (Homo sapiens) (UniProt Q9HC98); settings: Compound concentration 1000.0 nM
Chain of Serine/threonine-protein kinase Nek6 (Homo sapiens) (Q9HC98 whole entry): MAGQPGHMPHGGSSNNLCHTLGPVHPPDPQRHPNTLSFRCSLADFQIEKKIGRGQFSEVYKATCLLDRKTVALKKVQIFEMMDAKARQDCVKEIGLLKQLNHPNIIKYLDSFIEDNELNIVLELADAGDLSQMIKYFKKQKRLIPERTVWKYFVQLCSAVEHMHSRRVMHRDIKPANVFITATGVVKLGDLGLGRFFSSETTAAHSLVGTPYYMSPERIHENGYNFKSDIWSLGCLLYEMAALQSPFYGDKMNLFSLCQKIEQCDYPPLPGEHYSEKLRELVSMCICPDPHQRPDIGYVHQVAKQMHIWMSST

[25] = target: Tyrosine-protein kinase ZAP-70 (Homo sapiens) (UniProt P43403); settings: Compound concentration 1000.0 nM
[26] = target: ALK tyrosine kinase receptor (Homo sapiens) (UniProt Q9UM73); settings: Compound concentration 1000.0 nM
[27] = target: Serine/threonine-protein kinase 25 (Homo sapiens) (UniProt O00506); settings: Compound concentration 1000.0 nM
[28] = target: Cyclin-dependent kinase 16 (Homo sapiens) (UniProt Q00536); settings: Compound concentration 1000.0 nM
[29] = target: Tyrosine-protein kinase Srms (Homo sapiens) (UniProt Q9H3Y6); settings: Compound concentration 1000.0 nM
[30] = target: Activin receptor type-1 (Homo sapiens) (UniProt Q04771); settings: Compound concentration 1000.0 nM
[31] = target: Serine/threonine-protein kinase 17A (Homo sapiens) (UniProt Q9UEE5); settings: Compound concentration 1000.0 nM
[32] = target: Ephrin type-A receptor 7 (Homo sapiens) (UniProt Q15375); settings: Compound concentration 1000.0 nM
[33] = target: Mitogen-activated protein kinase kinase kinase 6 (Homo sapiens) (UniProt O95382); settings: Compound concentration 1000.0 nM
[34] = target: Ephrin type-A receptor 8 (Homo sapiens) (UniProt P29322); settings: Compound concentration 1000.0 nM
Chain of Ephrin type-A receptor 8 (Homo sapiens) (P29322 whole entry): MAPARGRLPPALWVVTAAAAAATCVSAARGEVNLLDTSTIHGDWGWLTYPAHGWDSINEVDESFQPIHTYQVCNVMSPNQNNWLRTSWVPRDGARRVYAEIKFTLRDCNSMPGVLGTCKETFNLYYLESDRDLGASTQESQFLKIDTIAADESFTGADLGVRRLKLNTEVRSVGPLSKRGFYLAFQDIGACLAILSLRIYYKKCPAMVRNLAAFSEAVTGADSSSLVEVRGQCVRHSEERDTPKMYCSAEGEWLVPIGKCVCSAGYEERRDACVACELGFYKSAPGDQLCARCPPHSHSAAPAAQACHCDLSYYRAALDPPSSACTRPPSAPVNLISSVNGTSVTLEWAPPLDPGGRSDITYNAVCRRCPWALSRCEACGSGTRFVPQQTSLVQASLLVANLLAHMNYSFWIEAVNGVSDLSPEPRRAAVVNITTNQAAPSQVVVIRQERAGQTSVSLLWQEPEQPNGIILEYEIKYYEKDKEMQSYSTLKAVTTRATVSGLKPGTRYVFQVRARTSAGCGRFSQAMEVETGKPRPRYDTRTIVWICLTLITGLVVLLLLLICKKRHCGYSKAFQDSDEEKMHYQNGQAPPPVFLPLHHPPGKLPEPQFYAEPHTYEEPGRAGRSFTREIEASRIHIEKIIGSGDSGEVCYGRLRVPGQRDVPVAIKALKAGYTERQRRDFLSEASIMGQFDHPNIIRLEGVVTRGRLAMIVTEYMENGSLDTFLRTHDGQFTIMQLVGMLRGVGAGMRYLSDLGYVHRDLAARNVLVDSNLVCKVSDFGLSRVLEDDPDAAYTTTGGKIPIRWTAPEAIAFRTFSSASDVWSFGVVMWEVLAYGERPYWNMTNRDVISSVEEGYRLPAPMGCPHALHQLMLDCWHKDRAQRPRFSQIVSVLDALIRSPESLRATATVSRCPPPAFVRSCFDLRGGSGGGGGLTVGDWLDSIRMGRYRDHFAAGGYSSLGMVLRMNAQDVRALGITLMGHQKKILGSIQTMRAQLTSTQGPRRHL

[35] = target: D(2) dopamine receptor (Homo sapiens, UniProt P14416); assay: GPCRScan assay: inhibition of D2; parameters: radioligand conc. used [nm] 0.4 – 1.0, parental cells stable fibroblast
[36] = target: Sigma intracellular receptor 2 (Homo sapiens, UniProt Q5BJF2); assay: GPCRScan assay: inhibition of Sigma 2; parameters: radioligand conc. used [nm] 5.0, parental cells HEKT
Chain of Sigma intracellular receptor 2 (Q5BJF2 whole entry): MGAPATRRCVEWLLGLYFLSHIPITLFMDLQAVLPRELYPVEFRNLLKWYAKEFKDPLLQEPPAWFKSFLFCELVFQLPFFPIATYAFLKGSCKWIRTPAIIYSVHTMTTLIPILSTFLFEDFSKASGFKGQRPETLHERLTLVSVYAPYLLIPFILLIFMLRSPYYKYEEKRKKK

[37] = target: Sodium-dependent noradrenaline transporter (Homo sapiens, UniProt P23975); assay: GPCRScan assay: inhibition of NET; parameters: radioligand conc. used [nm] 1.3 – 5.0, parental cells stable HEK
Chain of Sodium-dependent noradrenaline transporter (P23975 whole entry): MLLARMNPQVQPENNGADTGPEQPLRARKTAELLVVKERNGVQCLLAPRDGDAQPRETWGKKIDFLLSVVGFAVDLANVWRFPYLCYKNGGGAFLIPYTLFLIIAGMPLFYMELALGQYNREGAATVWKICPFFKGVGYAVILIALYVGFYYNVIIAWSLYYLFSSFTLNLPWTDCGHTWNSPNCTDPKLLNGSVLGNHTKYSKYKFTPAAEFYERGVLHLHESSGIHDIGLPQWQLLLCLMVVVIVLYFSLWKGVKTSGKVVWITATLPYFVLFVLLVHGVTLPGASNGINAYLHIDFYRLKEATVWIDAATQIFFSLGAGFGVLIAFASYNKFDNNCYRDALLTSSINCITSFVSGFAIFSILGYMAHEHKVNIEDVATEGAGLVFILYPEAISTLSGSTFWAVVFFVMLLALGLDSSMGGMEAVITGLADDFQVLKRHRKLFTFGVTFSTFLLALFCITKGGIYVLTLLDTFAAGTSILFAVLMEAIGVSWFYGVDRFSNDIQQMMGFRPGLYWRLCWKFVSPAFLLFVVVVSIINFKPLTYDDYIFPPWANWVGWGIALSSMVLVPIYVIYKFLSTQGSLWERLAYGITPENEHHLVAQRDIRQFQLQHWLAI

O=S(=O)(NC1CCC(c2cc(F)ccc2F)(S(=O)(=O)c2ccc(Cl)cc2)CC1)C(F)(F)F (configuration not stated) [MRK-560]
inactive: residual activity [1] 70% | residual activity [2] 100% | residual activity [3] 100% | residual activity [4] 82% | residual activity [5] 100% | residual activity [6] 65% | residual activity [7] 100% | residual activity [8] 89% | residual activity [9] 100% | residual activity [10] 99% | residual activity [11] 84% | residual activity [12] 91% | residual activity [13] 100% | residual activity [14] 100% | residual activity [15] 100% | residual activity [16] 100% | residual activity [17] 83% | residual activity [18] 100% | residual activity [19] 100% | residual activity [20] 95% | residual activity [21] 100% | residual activity [22] 100% | residual activity [23] 100% | residual activity [24] 100% | residual activity [25] 100% | residual activity [26] 100% | residual activity [27] 100% | residual activity [28] 68% | residual activity [29] 100% | residual activity [30] 92% | residual activity [31] 86% | residual activity [32] 100% | residual activity [33] 82% | residual activity [34] 100%

CC(C)(C)OC(=O)N1CCCC1CNC1CCC(c2cc(F)ccc2F)(S(=O)(=O)c2ccc(Cl)cc2)CC1 (configuration not stated) [GSI-NC]
959 nM: Ki [36]
1220 nM: Ki [35]
2430 nM: Ki [37]
